Assay results reported in patent US10131653B2, “Heterocyclic compound” (TAKEDA PHARMACEUTICAL COMPANY LIMITED, priority 2015, dated 2018).
Structures can show the parent of a compound that is named as a salt.

Columns and labels:
human OX1 receptor = target: T1, human OX1 receptor (Homo sapiens, UniProt O43613); assay: Measurement of orexin receptor antagonistic activity (calcium fluorescence, FLIPRtetra); format: cell-based; conditions: 10 μM test compound, CHO cells expressing human OX1 receptor, OX-A 1 nM; for inhibition at 10 µM: CHO, read-out: Human Orexin1 receptor inhibition (at 10 μM)
T1 construct: expressed in transfected cells; host or cells: CHO cells
T1 sequence (O43613 1-425): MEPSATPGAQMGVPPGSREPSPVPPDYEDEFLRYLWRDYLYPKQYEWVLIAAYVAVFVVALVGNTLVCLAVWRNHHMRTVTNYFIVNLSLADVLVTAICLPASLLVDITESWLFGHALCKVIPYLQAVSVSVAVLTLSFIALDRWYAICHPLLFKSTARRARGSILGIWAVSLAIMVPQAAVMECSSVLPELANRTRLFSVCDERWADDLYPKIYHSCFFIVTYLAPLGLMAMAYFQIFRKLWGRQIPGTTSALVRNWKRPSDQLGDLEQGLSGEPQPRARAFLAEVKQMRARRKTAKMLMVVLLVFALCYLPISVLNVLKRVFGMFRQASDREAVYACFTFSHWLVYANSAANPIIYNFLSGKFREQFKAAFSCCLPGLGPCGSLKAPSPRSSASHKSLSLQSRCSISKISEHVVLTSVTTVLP
Method: (§1) Measurement of Orexin Receptor Antagonistic Activity
(§2) CHO cells forcibly expressing human OX1 receptor or human OX2 receptor were seeded in each well of 384 well black transparent bottom plate (BD Falcon) at 7,500 cells/well, and cultured for one day in a 5% CO2 incubator at 37° C. […] The plate was stood for 30 min in a 5% CO2 incubator at 37° C., and further stood at room temperature for 30 min. A test compound prepared by diluting with assay buffer B (HBSS, 20 mM HEPES, 0.1% BSA) was added at 10 μL/well, and then OX-A (OX1 receptor, final concentration; 1 nM) or OX-A (OX2 receptor, final concentration; 0.3 nM) was added at 10 μL/well, and the fluorescence value was measured by FLIPRtetra (Molecular Devices) every one sec for 2 min.

human OX2 receptor = target: T2, human OX2 receptor (Homo sapiens, UniProt O43614); assay: as above; format: cell-based; conditions: 10 μM test compound, CHO cells expressing human OX2 receptor, OX-A 0.3 nM; for inhibition at 10 µM: CHO, read-out: Human Orexin2 receptor inhibition (at 10 μM)
T2 construct: expressed in transfected cells; host or cells: CHO cells
T2 sequence (O43614 1-444): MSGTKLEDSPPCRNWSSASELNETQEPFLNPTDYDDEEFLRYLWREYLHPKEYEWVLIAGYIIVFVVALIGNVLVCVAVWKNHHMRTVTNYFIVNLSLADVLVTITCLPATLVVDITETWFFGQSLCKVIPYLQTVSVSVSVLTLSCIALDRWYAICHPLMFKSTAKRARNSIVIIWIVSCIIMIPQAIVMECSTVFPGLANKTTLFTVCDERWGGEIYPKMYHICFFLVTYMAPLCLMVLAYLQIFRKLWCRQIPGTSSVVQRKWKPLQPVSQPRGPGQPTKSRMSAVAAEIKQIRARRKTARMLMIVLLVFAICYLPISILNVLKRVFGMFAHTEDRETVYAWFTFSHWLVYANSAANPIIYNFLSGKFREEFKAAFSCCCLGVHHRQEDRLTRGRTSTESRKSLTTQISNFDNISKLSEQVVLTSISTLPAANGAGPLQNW
Method: as §1, §2

| Compound | Human Orexin1 receptor inhibition (at 10 μM) (human OX1 receptor) | Human Orexin2 receptor inhibition (at 10 μM) (human OX2 receptor) | inhibition at 10 µM (human OX1 receptor) | inhibition at 10 µM (human OX2 receptor) |
| --- | --- | --- | --- | --- |
| Cc1cc(N2CCN(C(=O)c3cc(Cl)ccc3-n3nccn3)CC(C)O2)nc(C)n1 (stereo in doubt) [Example 212, (5-chloro-2-(2H-1,2,3-triazol-2-yl)phenyl)((7R)-2-(2,6-dimethylpyrimidin-4-yl)-7-methyl-1,2,5-oxadiazepan-5-yl)methanone] | 16% | 99% |  |  |
| Cc1nc(N2CCN(C(=O)c3cc(Cl)ccc3-n3nccn3)C[C@H](C)O2)cc(C(F)(F)F)n1 [Example 3, (5-chloro-2-(2H-1,2,3-triazol-2-yl)phenyl)((7S)-7-methyl-2-(2-methyl-6-(trifluoromethyl)pyrimidin-4-yl)-1,2,5-oxadiazepan-5-yl)methanone] |  |  | 87% | 100% |
| Cc1cc(N2C[C@H](C)N(C(=O)c3ccccc3-c3nccs3)[C@H](C)CO2)nc(C)n1 [Example 5, ((4S,6R)-2-(2,6-dimethylpyrimidin-4-yl)-4,6-dimethyl-1,2,5-oxadiazepan-5-yl)(2-(1,3-thiazol-2-yl)phenyl)methanone] |  |  | 101% | 99% |
| Cc1ccc(-n2nccn2)c(C(=O)N2CCN(c3cc(C)nc(C)n3)OC[C@H]2C)c1 [Example 6, ((6R)-2-(2,6-dimethylpyrimidin-4-yl)-6-methyl-1,2,5-oxadiazepan-5-yl)(5-methyl-2-(2H-1,2,3-triazol-2-yl)phenyl)methanone] |  |  | 88% | 96% |
| Cc1cc(N2CCN(C(=O)c3c(F)cccc3-n3nccn3)CCO2)nc(C)n1 [Example 16, (2-(2,6-dimethylpyrimidin-4-yl)-1,2,5-oxadiazepan-5-yl) (2-fluoro-6-(2H-1,2,3-triazol-2-yl)phenyl)methanone hydrochloride] |  |  | 21% | 98% |
| Cc1cc(N2CCN(C(=O)c3ccccc3-c3ncc(F)s3)CCO2)nc(C)n1 [Example 17, (2-(2,6-dimethylpyrimidin-4-yl)-1,2,5-oxadiazepan-5-yl) (2-(5-fluoro-1,3-thiazol-2-yl)phenyl)methanone] |  |  | 41% | 102% |
| Cc1cc(N2CCN(C(=O)c3ccccc3-c3csc(C)n3)CCO2)nc(C)n1 [Example 19, (2-(2,6-dimethylpyrimidin-4-yl)-1,2,5-oxadiazepan-5-yl) (2-(2-methyl-1,3-thiazol-4-yl)phenyl)methanone] |  |  | 36% | 100% |
| Cc1cc(N2CCN(C(=O)c3ccccc3C3CCC3)CCO2)nc(C)n1 [Example 21, (2-cyclobutylphenyl) (2-(2,6-dimethylpyrimidin-4-yl)-1,2,5-oxadiazepan-5-yl)methanone] |  |  | 19% | 99% |
| Cc1cc(N2CCN(C(=O)c3cc(Cl)ccc3C3CCC3)CCO2)nc(C)n1 [Example 22, (5-chloro-2-cyclobutylphenyl) (2-(2,6-dimethylpyrimidin-4-yl)-1,2,5-oxadiazepan-5-yl)methanone] |  |  | 54% | 99% |
| Cc1cc(N2CCN(C(=O)c3ccccc3-c3cccs3)CCO2)nc(C)n1 [Example 23, (2-(2,6-dimethylpyrimidin-4-yl)-1,2,5-oxadiazepan-5-yl) (2-(2-thienyl)phenyl)methanone hydrochloride] |  |  | 88% | 101% |
| Cc1cc(N2CCN(C(=O)c3ccccc3-c3nc(C)no3)CCO2)nc(C)n1 [Example 24, (2-(2,6-dimethyl-pyrimidin-4-yl)-1,2,5-oxadiazepan-5-yl) (2-(3-methyl-1,2,4-oxadiazol-5-yl)phenyl) methanone] |  |  | 13% | 99% |
| Cc1cc(N2CCN(C(=O)c3cc(F)ccc3-c3ncccn3)CCO2)nc(C)n1 [Example 27, (2-(2,6-dimethyl-pyrimidin-4-yl)-1,2,5-oxadiazepan-5-yl) (5-fluoro-2-(pyrimidin-2-yl)phenyl) methanone] |  |  | 45% | 102% |
| Cc1cc(N2CCN(C(=O)c3cc(F)ccc3-n3cccn3)CCO2)nc(C)n1 [Example 28, (2-(2,6-dimethyl-pyrimidin-4-yl)-1,2,5-oxadiazepan-5-yl) (5-fluoro-2-(1H-pyrazol-1-yl)phenyl) methanone] |  |  | 23% | 74% |
| Cc1cc(N2CCN(C(=O)c3ccccc3-c3nccs3)CCO2)nc(C)n1 [Example 29, (2-(2,6-dimethyl-pyrimidin-4-yl)-1,2,5-oxadiazepan-5-yl) (2-(1,3-thiazol-2-yl)phenyl) methanone] |  |  | 88% | 100% |
| Cc1cc(N2CCN(C(=O)c3ccccc3-n3cccn3)CCO2)nc(C)n1 [Example 30, (2-(2,6-dimethyl-pyrimidin-4-yl)-1,2,5-oxadiazepan-5-yl) (2-(1H-pyrazol-1-yl)phenyl) methanone] |  |  | 1% | 101% |
| Cc1cc(C)nc(N2CCN(C(=O)c3ccc(Cl)cc3)CCO2)n1 [Example 40, (4-chlorophenyl)(2-(4,6-dimethylpyrimidin-2-yl)-1,2,5-oxadiazepan-5-yl)methanone] |  |  |  | 4% |

The next lines start with the values.

| Human Orexin1 receptor inhibition (at 10 μM) (human OX1 receptor) | Human Orexin2 receptor inhibition (at 10 μM) (human OX2 receptor) | inhibition at 10 µM (human OX1 receptor) | inhibition at 10 µM (human OX2 receptor) | Compound |
| --- | --- | --- | --- | --- |
|  |  | 62% | 96% | Cc1ccc(-n2nccn2)c(C(=O)N2CCON(c3cc(C)nc(C)n3)CC2)c1 [Example 4, (2-(2,6-dimethylpyrimidin-4-yl)-1,2,5-oxadiazepan-5-yl)(5-methyl-2-(2H-1,2,3-triazol-2-yl)phenyl)methanone] |
|  |  | 91% | 74% | Cc1ccc(-n2nccn2)c(C(=O)N2CCON(c3ncc(C(F)(F)F)cn3)CC2)c1 [Example 9] |
|  |  | 93% | 94% | Cc1ccc(-n2nccn2)c(C(=O)N2CCON(c3ncc(C4CC4)cn3)CC2)c1 [Example 10, (2-(5-cyclopropylpyrimidin-2-yl)-1,2,5-oxadiazepan-5-yl)(5-methyl-2-(2H-1,2,3-triazol-2-yl)phenyl)methanone] |
|  |  | 101% | 93% | Cc1ccc(-n2nccn2)c(C(=O)N2CCON(c3nc(C)cc(-c4ccc(F)cc4)n3)CC2)c1 [Example 12, (2-(4-(4-fluorophenyl)-6-methylpyrimidin-2-yl)-1,2,5-oxadiazepan-5-yl)(5-methyl-2-(2H-1,2,3-triazol-2-yl)phenyl)methanone] |
|  |  | 23% | 91% | Cc1cc(N2CCN(C(=O)c3cc(F)ccc3-n3nccn3)CCO2)nc(C)n1 [Example 14, (2-(2,6-dimethylpyrimidin-4-yl)-1,2,5-oxadiazepan-5-yl)(5-fluoro-2-(2H-1,2,3-triazol-2-yl)phenyl)methanone] |
|  |  | 5% | 102% | Cc1cc(N2CCN(C(=O)c3cc(F)c(F)cc3-n3nccn3)CCO2)nc(C)n1 [Example 15, (4,5-difluoro-2-(2H-1,2,3-triazol-2-yl)phenyl) (2-(2,6-dimethylpyrimidin-4-yl)-1,2,5-oxadiazepan-5-yl)methanone] |
|  |  | 25% | 101% | Cc1cc(N2CCN(C(=O)c3ccccc3-n3nccn3)CCO2)nc(C)n1 [Example 20, (2-(2,6-dimethylpyrimidin-4-yl)-1,2,5-oxadiazepan-5-yl) (2-(2H-1,2,3-triazol-2-yl)phenyl)methanone] |
|  |  | 61% | 98% | Cc1cc(N2CCN(C(=O)c3cc(Cl)ccc3-n3nccn3)CCO2)nc(C)n1 [Example 25, (5-chloro-2-(2H-1,2,3-triazol-2-yl)phenyl) (2-(2,6-dimethyl-pyrimidin-4-yl)-1,2,5-oxadiazepan-5-yl)methanone] |
|  |  | 83% | 100% | Cc1cc(N2CCN(C(=O)c3cc(Br)ccc3-n3nccn3)CCO2)nc(C)n1 [Example 26, (5-bromo-2-(2H-1,2,3-triazol-2-yl)phenyl) (2-(2,6-dimethyl-pyrimidin-4-yl)-1,2,5-oxadiazepan-5-yl)methanone] |
